Laboratory results taken from US10576085B2, “Substituted aminopurine compounds, compositions thereof, and methods of treatment therewith” (Signal Pharmaceuticals, LLC, priority 2016, dated 2020).

Tested on: cancer cell lines of Table 2
Assay: Multiplexed cytotoxicity assay: apoptosis (activated caspase-3; Cal_X2, Cal_X5, Max_Fold_Change)
Type: cell-based
Procedure: Cells are grown in RPMI1640, 10% FBS, 2 mM L-alanyl-L-Glutamine, 1 mM Na pyruvate or a special medium in a humidified atmosphere of 5% CO2 at 37° C. Cells are seeded into 384-well plates and incubated in a humidified atmosphere of 5% CO2 at 37° C. Compounds are added 24 h post cell seeding. At the same time, a time zero untreated cell plate is generated. After a 72 hour incubation period, cells are fixed and stained with fluorescently labeled antibodies and nuclear dye to allow visualization of nuclei, apoptotic cells and mitotic cells. Apoptotic cells are detected using an anti-active caspase-3 antibody. Mitotic cells are detected using an anti phospho-histone-3 antibody. Compounds are serially diluted 3.16-fold and assayed over 10 concentrations in a final assay concentration of 0.1% DMSO from the highest test concentration of 10 μM. Automated fluorescence microscopy was carried out using a Molecular Devices ImageXpress Micro XL high-content imager, and images are collected with a 4× objective.
The activated caspase-3 marker labels cells from early to late stage apoptosis. Concentrations of test compound that cause a 5-fold induction in the caspase-3 signal (Cal_X5) indicate significant apoptosis induction. The maximal induction of caspase 3 by compound in comparison with DMSO control is reported as Max_Fold_Change.
In Another Experiment, Cells were Grown in RPMI1640, 10% FBS, 2 mM L-alanyl-L-Glutamine, 1 mM Na pyruvate or a special medium in a humidified atmosphere of 5% CO2 at 37° C. Cells were seeded into 384-well plates and incubated in a humidified atmosphere of 5% CO2 at 37° C. Compounds were added 24 h post cell seeding. At the same time, a time zero untreated cell plate was generated. After a 72 hour incubation period, cells were fixed and stained with fluorescently labeled antibodies and nuclear dye to allow visualization of nuclei, apoptotic cells and mitotic cells. Apoptotic cells were detected using an anti-active caspase-3 antibody. Mitotic cells were detected using an anti phospho-histone-3 antibody. Compounds were serially diluted 3.16-fold and assayed over 10 concentrations in a final assay concentration of 0.1% DMSO from the highest test concentration of 10 μM. Automated fluorescence microscopy was carried out using a Molecular Devices ImageXpress Micro XL high-content imager, and images were collected with a 4× objective.
The activated caspase-3 marker labels cells from early to late stage apoptosis. Concentrations of test compound that cause a 2-fold (Cal-X2) or 5-fold induction in the caspase-3 signal (Cal_X5) indicated significant apoptosis induction. The maximal induction of caspase 3 by compound in comparison with DMSO control was reported as Max_Fold_Change.

C[C@]1(C(N)=O)CC[C@@H](n2c(Nc3c(Cl)cc(Cl)cc3Cl)nc3cnc(N[C@@H]4CCOC[C@H]4F)nc32)CC1 [Compound 1, cis-4-[2-{[(3S,4R)-3-fluorooxan-4-yl]amino}-8-(2,4,6-trichloroanilino)-9H-purin-9-yl]-1-methyl cyclohexane-1-carboxamide] was tested, and the CalX2 (639V, Bladder) was 0.0841 µM, the CalX5 (639V, Bladder) was 0.465 µM and the Max fold change (639V, Bladder) was 6.33. For the same molecule, the CalX2 (647V, Bladder) was 2.7413 µM, the CalX5 (647V, Bladder) was 4.45 µM and the Max fold change (647V, Bladder) was 19.29. It also gave a CalX2 (769P, Kidney) of 0.2023 µM, a CalX5 (769P, Kidney) of 5.11 µM and a Max fold change (769P, Kidney) of 5.67. For the same molecule, the CalX2 (786O, Kidney) was 10 µM, the CalX5 (786O, Kidney) was 10 µM and the Max fold change (786O, Kidney) was 0.83. It also gave a CalX2 (A7, Skin, Melanoma) of 5.0814 µM, a CalX5 (A7, Skin, Melanoma) of 9.4 µM and a Max fold change (A7, Skin, Melanoma) of 5.51. The CalX2 (A101D, Skin, Melanoma) was 0.4207 µM, the CalX5 (A101D, Skin, Melanoma) was 3.71 µM and the Max fold change (A101D, Skin, Melanoma) was 7.93. It also gave a CalX2 (A375, Skin, Melanoma) of 0.0673 µM, a CalX5 (A375, Skin, Melanoma) of 0.0827 µM and a Max fold change (A375, Skin, Melanoma) of 103.79. It also gave a CalX2 (A498, Kidney) of 0.5562 µM, a CalX5 (A498, Kidney) of 10 µM and a Max fold change (A498, Kidney) of 4.72. For the same molecule, the CalX2 (A704, Kidney) was 10 µM, the CalX5 (A704, Kidney) was 10 µM and the Max fold change (A704, Kidney) was 0.96. The CalX2 (A2058, Skin, Melanoma) was 0.065 µM, the CalX5 (A2058, Skin, Melanoma) was 0.204 µM and the Max fold change (A2058, Skin, Melanoma) was 11.68. For the same molecule, the CalX2 (ACHN, Kidney) was 0.78 µM, the CalX5 (ACHN, Kidney) was 10 µM and the Max fold change (ACHN, Kidney) was 2.97. It also gave a CalX2 (AU565, Breast) of 3.8749 µM, a CalX5 (AU565, Breast) of 7.14 µM and a Max fold change (AU565, Breast) of 14.18. For the same molecule, the CalX2 (BC1, Lymphoma) was 5.1005 µM, the CalX5 (BC1, Lymphoma) was 6.54 µM and the Max fold change (BC1, Lymphoma) was 8.72. The CalX2 (BCP1, Lymphoma) was 4.8663 µM, the CalX5 (BCP1, Lymphoma) was 7.36 µM and the Max fold change (BCP1, Lymphoma) was 6.56. For the same molecule, the CalX2 (BFTC905, Bladder) was 0.0179 µM, the CalX5 (BFTC905, Bladder) was 0.0414 µM and the Max fold change (BFTC905, Bladder) was 45.3. The CalX2 (BT20, Breast) was 10 µM, the CalX5 (BT20, Breast) was 10 µM and the Max fold change (BT20, Breast) was 1.81. The CalX2 (BT474, Breast) was 10 µM, the CalX5 (BT474, Breast) was 10 µM and the Max fold change (BT474, Breast) was 0.94. For the same molecule, the CalX2 (BV173, Leukemia) was 0.4959 µM, the CalX5 (BV173, Leukemia) was 10 µM and the Max fold change (BV173, Leukemia) was 2.91. The CalX2 (C32, Skin, Melanoma) was 0.0451 µM, the CalX5 (C32, Skin, Melanoma) was 0.0778 µM and the Max fold change (C32, Skin, Melanoma) was 110.9. It also gave a CalX2 (C32TG, Skin, Melanoma) of 0.0608 µM, a CalX5 (C32TG, Skin, Melanoma) of 0.117 µM and a Max fold change (C32TG, Skin, Melanoma) of 42.82. For the same molecule, the CalX2 (CA46, Lymphoma) was 3.2395 µM, the CalX5 (CA46, Lymphoma) was 8.08 µM and the Max fold change (CA46, Lymphoma) was 9.46. For the same molecule, the CalX2 (CAKI1, Kidney) was 0.2015 µM, the CalX5 (CAKI1, Kidney) was 10 µM and the Max fold change (CAKI1, Kidney) was 4.12. It also gave a CalX2 (CAKI2, Kidney) of 0.1631 µM, a CalX5 (CAKI2, Kidney) of 0.449 µM and a Max fold change (CAKI2, Kidney) of 6.26. For the same molecule, the CalX2 (CCRFCEM, Leukemia) was 3.4279 µM, the CalX5 (CCRFCEM, Leukemia) was 6.95 µM and the Max fold change (CCRFCEM, Leukemia) was 12.74. The CalX2 (CEMC1, Leukemia) was 4.1828 µM, the CalX5 (CEMC1, Leukemia) was 5.22 µM and the Max fold change (CEMC1, Leukemia) was 11.27. For the same molecule, the CalX2 (CHL1, Skin, Melanoma) was 1.2376 µM, the CalX5 (CHL1, Skin, Melanoma) was 10 µM and the Max fold change (CHL1, Skin, Melanoma) was 3.46. The CalX2 (CMLT1, Leukemia) was 0.0948 µM, the CalX5 (CMLT1, Leukemia) was 10 µM and the Max fold change (CMLT1, Leukemia) was 4.85. It also gave a CalX2 (COLO829, Skin, Melanoma) of 0.0421 µM, a CalX5 (COLO829, Skin, Melanoma) of 0.125 µM and a Max fold change (COLO829, Skin, Melanoma) of 24.28. The CalX2 (CROAP2, Lymphoma) was 2.9603 µM, the CalX5 (CROAP2, Lymphoma) was 4.2 µM and the Max fold change (CROAP2, Lymphoma) was 50.79. The CalX2 (D283MED, CNS, Medulloblastoma) was 8.3456 µM, the CalX5 (D283MED, CNS, Medulloblastoma) was 10 µM and the Max fold change (D283MED, CNS, Medulloblastoma) was 2.23. The CalX2 (D341MED, CNS, Medulloblastoma) was 7.7855 µM, the CalX5 (D341MED, CNS, Medulloblastoma) was 10 µM and the Max fold change (D341MED, CNS, Medulloblastoma) was 2.14. For the same molecule, the CalX2 (DAOY, CNS, Medulloblastoma) was 3.2773 µM, the CalX5 (DAOY, CNS, Medulloblastoma) was 5.22 µM and the Max fold change (DAOY, CNS, Medulloblastoma) was 16.68. The CalX2 (DAUDI, Lymphoma) was 3.9392 µM, the CalX5 (DAUDI, Lymphoma) was 5.33 µM and the Max fold change (DAUDI, Lymphoma) was 10.08. For the same molecule, the CalX2 (DB, Lymphoma) was 6.1153 µM, the CalX5 (DB, Lymphoma) was 6.5 µM and the Max fold change (DB, Lymphoma) was 7.11. The CalX2 (DOHH2, Lymphoma) was 2.4833 µM, the CalX5 (DOHH2, Lymphoma) was 3.99 µM and the Max fold change (DOHH2, Lymphoma) was 20.41. It also gave a CalX2 (EB2, Lymphoma) of 5.7381 µM, a CalX5 (EB2, Lymphoma) of 10 µM and a Max fold change (EB2, Lymphoma) of 4.16. The CalX2 (EB3, Lymphoma) was 6.1469 µM, the CalX5 (EB3, Lymphoma) was 7.66 µM and the Max fold change (EB3, Lymphoma) was 5.5. It also gave a CalX2 (EM2, Leukemia) of 10 µM, a CalX5 (EM2, Leukemia) of 10 µM and a Max fold change (EM2, Leukemia) of 1.55. It also gave a CalX2 (G361, Skin, Melanoma) of 0.0428 µM, a CalX5 (G361, Skin, Melanoma) of 0.12 µM and a Max fold change (G361, Skin, Melanoma) of 24.48. It also gave a CalX2 (G401, Kidney) of 0.0717 µM, a CalX5 (G401, Kidney) of 0.179 µM and a Max fold change (G401, Kidney) of 30.87. The CalX2 (G402, Kidney) was 0.0162 µM, the CalX5 (G402, Kidney) was 0.637 µM and the Max fold change (G402, Kidney) was 7.34. The CalX2 (GA10, Lymphoma) was 0.6477 µM, the CalX5 (GA10, Lymphoma) was 1.94 µM and the Max fold change (GA10, Lymphoma) was 6.49. It also gave a CalX2 (H9, Lymphoma) of 0.0222 µM, a CalX5 (H9, Lymphoma) of 0.4 µM and a Max fold change (H9, Lymphoma) of 7.33. For the same molecule, the CalX2 (HEL9217, Leukemia) was 3.2991 µM, the CalX5 (HEL9217, Leukemia) was 6.57 µM and the Max fold change (HEL9217, Leukemia) was 6.23. For the same molecule, the CalX2 (HEPG2, Liver) was 0.0041 µM, the CalX5 (HEPG2, Liver) was 0.0108 µM and the Max fold change (HEPG2, Liver) was 62.47. It also gave a CalX2 (HLE, Liver) of 0.8174 µM, a CalX5 (HLE, Liver) of 10 µM and a Max fold change (HLE, Liver) of 2.5. For the same molecule, the CalX2 (HLF, Liver) was 10 µM, the CalX5 (HLF, Liver) was 10 µM and the Max fold change (HLF, Liver) was 1.95. It also gave a CalX2 (HMCB, Skin, Melanoma) of 10 µM, a CalX5 (HMCB, Skin, Melanoma) of 10 µM and a Max fold change (HMCB, Skin, Melanoma) of 1.8. The CalX2 (HS294T, Skin, Melanoma) was 0.154 µM, the CalX5 (HS294T, Skin, Melanoma) was 2.15 µM and the Max fold change (HS294T, Skin, Melanoma) was 5.74. The CalX2 (HS445, Lymphoma) was 4.9128 µM, the CalX5 (HS445, Lymphoma) was 7.7 µM and the Max fold change (HS445, Lymphoma) was 5.65.
